# Measurements reported in PMC6934184, “Selective DNA-PKcs inhibition extends the therapeutic index of localized radiotherapy and chemotherapy” (The Journal of Clinical Investigation, 2019).
# Target: T1, AKT1 (PKB alpha) (Homo sapiens, UniProt P31749)
# T1 construct: purchased Thermo Fisher Scientific (Life Technologies) SelectScreen
# Assay: SelectScreen Z'LYTE
# Assay type: biochemical
# Method in brief: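 NU5455 was profiled across the SelectScreen Broad panel of kinase activity and binding assays. Z'LYTE reactions such as CSF1R ran at apparent Km ATP, while the Adapta CAMK1 assay used ATP listed as 10. Values are given as percent.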
# T1 sequence (P31749 whole entry): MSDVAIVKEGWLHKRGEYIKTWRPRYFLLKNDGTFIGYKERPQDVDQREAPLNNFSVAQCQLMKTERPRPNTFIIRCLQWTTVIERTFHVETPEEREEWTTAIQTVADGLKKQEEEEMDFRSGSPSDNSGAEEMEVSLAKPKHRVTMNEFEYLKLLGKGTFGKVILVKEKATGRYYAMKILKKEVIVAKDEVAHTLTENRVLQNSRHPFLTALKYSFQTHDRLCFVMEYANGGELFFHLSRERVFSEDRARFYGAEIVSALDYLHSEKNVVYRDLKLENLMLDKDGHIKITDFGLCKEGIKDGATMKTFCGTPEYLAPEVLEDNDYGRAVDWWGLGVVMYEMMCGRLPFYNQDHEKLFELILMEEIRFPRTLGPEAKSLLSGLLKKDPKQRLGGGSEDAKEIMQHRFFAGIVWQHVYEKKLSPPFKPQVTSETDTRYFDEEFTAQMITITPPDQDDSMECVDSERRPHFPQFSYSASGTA
smiles,measurement,value
CN(C(=O)CN1CCOCC1)c1ccc2sc3c(-c4cccc5c(=O)cc(N6CC7CCC(C6)O7)oc45)cccc3c2c1 [NU5455],inhibition at 1 µM,0.5%
